Key:
Test in all cases: relative viability (nuclei count vs DMSO), 5 days (fraction); higher = more cells survive
[1] = compound: CCc1c2c(nc3ccc(OC(=O)N4CCC(N5CCCCC5)CC4)cc13)-c1cc3c(c(=O)n1C2)COC(=O)[C@]3(O)CC [Irinotecan] + CC(=O)Nc1cccc(-n2c(=O)n(C3CC3)c(=O)c3c(Nc4ccc(I)cc4F)n(C)c(=O)c(C)c32)c1 [Trametinib] (partner 0.02 µM)
How it was run: (§1)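 Five library-drug doses in √10 steps were combined with a fixed anchor-drug dose, or a single drug was given alone, by pin tool to lung cancer cell lines in 1536-well plates the day after seeding. Nuclei were stained and counted after 5 days. Relative viability is the nuclei count in treated wells over that in vehicle wells, taken as the median of duplicate plates.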

[2] = compound: CCc1c2c(nc3ccc(OC(=O)N4CCC(N5CCCCC5)CC4)cc13)-c1cc3c(c(=O)n1C2)COC(=O)[C@]3(O)CC [Irinotecan] + O=C(c1cc(Cc2n[nH]c(=O)c3ccccc23)ccc1F)N1CCN(C(=O)C2CC2)CC1 [Olaparib] (partner 8 µM)
How it was run: as §1

[3] = compound: CC[C@@H](C)CNCC(=O)N1CCC2=C([C@@H]1COC3=CC=CC(=C3)C)C=CS2 [RU-SKI 43] + Cc1nc(NC(=O)N2CCC[C@H]2C(N)=O)sc1-c1ccnc(C(C)(C)C(F)(F)F)c1 [Alpelisib] (partner 2 µM)
How it was run: as §1

[4] = compound: Cn1cc(-c2cnc3ccc4ccc(CS(=O)(=O)NCc5ccccn5)cc4c(=O)c3c2)cn1 [MK-8033] + CS(=O)(=O)CCNCc1ccc(-c2ccc3ncnc(Nc4ccc(OCc5cccc(F)c5)c(Cl)c4)c3c2)o1 [Lapatinib] (partner 2 µM)
How it was run: as §1

| Cell Line | relative viability ([1]; first compound 2 µM) | relative viability ([1]; first compound 6.325 µM) | relative viability ([1]; first compound 20 µM) | relative viability ([2]; first compound 2 µM) | relative viability ([2]; first compound 6.325 µM) | relative viability ([2]; first compound 20 µM) | relative viability ([3]; first compound 0.1 µM) | relative viability ([3]; first compound 0.3162 µM) | relative viability ([3]; first compound 1 µM) | relative viability ([3]; first compound 3.162 µM) | relative viability ([3]; first compound 10 µM) | relative viability ([4]; first compound 0.02 µM) | relative viability ([4]; first compound 0.06325 µM) | relative viability ([4]; first compound 0.2 µM) | relative viability ([4]; first compound 0.6325 µM) | relative viability ([4]; first compound 2 µM) | relative viability ([1]; first compound 0.6325 µM) | relative viability ([2]; first compound 0.6325 µM) |
| --- | --- | --- | --- | --- | --- | --- | --- | --- | --- | --- | --- | --- | --- | --- | --- | --- | --- | --- |
| NCI-H1355 | 0.399 | 0.239 | 0.22 | 0.321 | 0.278 | 0.209 | 0.826 | 0.877 | 0.924 | 0.956 | 0.921 | 0.979 | 0.865 | 0.865 | 0.988 | 0.909 |  |  |
| NCI-H1395 | 0.812 | 0.549 | 0.375 | 0.458 | 0.455 | 0.31 | 1.14 | 1.38 | 0.936 | 1.29 | 0.836 | 1.1 | 0.958 | 0.858 | 0.931 | 1.35 |  |  |
| NCI-H1437 | 0.524 | 0.239 | 0.157 | 0.429 | 0.316 | 0.272 | 0.945 | 1.26 | 0.964 | 1.07 | 0.921 | 0.736 | 0.773 | 0.793 | 0.834 | 0.749 | 0.477 | 0.434 |
| NCI-H1651 | 0.657 | 0.419 | 0.134 | 0.142 | 0.107 | 0.117 | 1.08 | 1.25 | 0.953 | 0.926 | 0.936 | 0.842 | 0.658 | 0.874 | 0.892 | 0.762 | 0.831 | 0.164 |
| NCI-H1666 | 0.569 | 0.638 | 0.432 | 0.726 | 0.654 | 0.671 | 1.09 | 1.09 | 0.966 | 0.789 | 0.582 | 0.708 | 0.505 | 0.519 | 0.656 | 0.587 | 0.769 | 0.672 |
| NCI-H1734 | 0.261 | 0.188 | 0.188 | 0.184 | 0.143 | 0.179 | 0.595 | 0.698 | 0.755 | 0.672 | 0.671 | 1.11 | 0.88 | 1.02 | 1.09 | 1.01 |  |  |
| NCI-H1755 | 0.456 | 0.405 | 0.469 | 0.358 | 0.372 | 0.42 | 0.97 | 1.21 | 1.04 | 1.05 | 0.916 | 1.06 | 0.986 | 1.02 | 1.02 | 0.957 | 0.733 | 0.482 |
| NCI-H1792 | 0.532 | 0.225 | 0.205 | 0.327 | 0.198 | 0.298 | 0.574 | 1.1 | 0.736 | 0.886 | 0.735 | 1.06 | 0.87 | 0.863 | 0.917 | 0.976 | 0.356 | 0.332 |
| NCI-H1793 | 0.515 | 0.351 | 0.262 | 0.528 | 0.173 | 0.209 | 0.676 | 0.784 | 0.764 | 0.894 | 0.686 | 0.793 |  | 0.492 | 0.783 | 0.495 |  |  |
